Measured values reported in US10131652B2, “Pyrimidinyloxy benzene derivatives as herbicides” (E. I. DU PONT DE NEMOURS AND COMPANY, priority 2014, dated 2018).
Read-outs that look alike come from different tables or passages of the source.

What was measured:
Format in all cases: in vivo
[1] = system: yellow nutsedge (Cyperus esculentus); assay: Test D pre-/postemergence plant response; settings: Cyperus; for pest or weed control at 31 g/ha: 31 g ai/ha; for pest or weed control at 62 g/ha: 62 g ai/ha; for pest or weed control at 125 g/ha: 125 g ai/ha
In short: (§1)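 Plants are held in a greenhouse 13 to 15 days after spraying, then injury is rated by eye relative to controls on a 0 to 100 scale. Treatments are preemergence on freshly sown loam/sand pots or postemergence at 1- to 4-leaf stage in peat-based medium; surfactant-containing solvent formulation.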

[2] = system: oilseed rape (Brassica napus); assay: Test D pre-/postemergence plant response; settings: Brassica napus; for plant injury at 31 g/ha: 31 g ai/ha; for plant injury at 62 g/ha: 62 g ai/ha; for plant injury at 125 g/ha: 125 g ai/ha
In short: as §1

[3] = system: soybean (Glycine max); assay: Test D pre-/postemergence plant response; settings: Glycine max; for plant injury at 31 g/ha: 31 g ai/ha; for plant injury at 62 g/ha: 62 g ai/ha; for plant injury at 125 g/ha: 125 g ai/ha
In short: as §1

[4] = system: winter wheat (Triticum aestivum); assay: Test D pre-/postemergence plant response; settings: Triticum aestivum; for plant injury at 31 g/ha: 31 g ai/ha; for plant injury at 62 g/ha: 62 g ai/ha; for plant injury at 125 g/ha: 125 g ai/ha
In short: as §1

[5] = system: velvetleaf (Abutilon theophrasti); assay: Test D pre-/postemergence plant response; settings: Abutilon theophrasti; for pest or weed control at 31 g/ha: 31 g ai/ha; for pest or weed control at 62 g/ha: 62 g ai/ha; for pest or weed control at 125 g/ha: 125 g ai/ha
In short: as §1

[6] = system: large (Lg) crabgrass (Digitaria sanguinalis); assay: Test D pre-/postemergence plant response; settings: Digitaria sanguinalis; for pest or weed control at 16 g/ha: 16 g ai/ha; for pest or weed control at 31 g/ha: 31 g ai/ha; for pest or weed control at 62 g/ha: 62 g ai/ha; for pest or weed control at 125 g/ha: 125 g ai/ha
In short: as §1

[7] = system: johnsongrass (Sorghum halepense); assay: Test D pre-/postemergence plant response; settings: Sorghum halepense; for pest or weed control at 31 g/ha: 31 g ai/ha; for pest or weed control at 62 g/ha: 62 g ai/ha; for pest or weed control at 125 g/ha: 125 g ai/ha
In short: as §1

[8] = system: chickweed (common chickweed, Stellaria media); assay: Test D postemergence plant response; settings: Stellaria media, post-emergence
In short: (§2)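 Postemergence spray on plants 2–18 cm tall (1- to 4-leaf stage), grown in pots of peat/vermiculite medium. Plants were kept in a greenhouse for 13–15 days, then visually rated against untreated controls on a 0 (no effect) to 100 (complete control) scale.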

[9] = system: kochia (Kochia scoparia); assay: Test D postemergence plant response; settings: Bassia scoparia, post-emergence
In short: as §2

[10] = system: wild oat (Avena fatua); assay: Test D postemergence plant response; settings: Avena fatua, post-emergence
In short: as §2

[11] = system: ducksalad (Heteranthera limosa); assay: Test C flooded paddy test plant response; settings: Heteranthera limosa; Flood, 250 g ai/ha; scale of 0 to 100 where 0 is no effect and 100 is complete control; 13 to 15 days; read-out: Ducksalad plant response rating
In short: (§3)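 Plants grown to 2-leaf stage, flooded 3 cm above soil; compounds applied directly into paddy water, depth kept throughout. Visual rating versus controls after 13 to 15 days in greenhouse, 0 (no effect) to 100 (complete control).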

[12] = system: rice (Oryza sativa); assay: Test C flooded paddy test plant response; settings: Oryza sativa; Flood, 250 g ai/ha; scale of 0 to 100 where 0 is no effect and 100 is complete control; 13 to 15 days; read-out: Rice plant response rating
In short: as §3

[13] = system: small-flower umbrella sedge (Cyperus difformis); assay: Test C flooded paddy test plant response; settings: Cyperus difformis; Flood, 250 g ai/ha; scale of 0 to 100 where 0 is no effect and 100 is complete control; 13 to 15 days; read-out: Sedge, Umbrella plant response rating
In short: as §3

[14] = system: barnyardgrass (Echinochloa crus-galli); assay: Test C flooded paddy test plant response; settings: Echinochloa crus-galli; Flood, 250 g ai/ha; scale of 0 to 100 where 0 is no effect and 100 is complete control; 13 to 15 days; read-out: Barnyardgrass plant response rating
In short: as §3

[15] = post-emergence, Postemergence, scale 0 to 100, 0 no effect, 100 complete control, read-out: Plant response rating, Nutsedge, Yellow
[16] = pre-emergence, Preemergence, scale 0 to 100 (0 no effect, 100 complete control), read-out: Plant response rating, Nutsedge, Yellow
[17] = post-emergence, Postemergence, scale 0 to 100, 0 no effect, 100 complete control, read-out: Plant response rating, Oilseed Rape
[18] = pre-emergence, Preemergence, scale 0 to 100 (0 no effect, 100 complete control), read-out: Plant response rating, Oilseed Rape
[19] = post-emergence, Postemergence, scale 0 to 100, 0 no effect, 100 complete control, read-out: Plant response rating, Soybean
[20] = pre-emergence, Preemergence, scale 0 to 100 (0 no effect, 100 complete control), read-out: Plant response rating, Soybean
[21] = post-emergence, Postemergence, scale 0 to 100, 0 no effect, 100 complete control, read-out: Plant response rating, Wheat
[22] = pre-emergence, Preemergence, scale 0 to 100 (0 no effect, 100 complete control), read-out: Plant response rating, Wheat
[23] = post-emergence, Postemergence, scale 0 to 100, 0 no effect, 100 complete control, read-out: Plant response rating, Velvetleaf
[24] = pre-emergence, Preemergence, scale 0 to 100 (0 no effect, 100 complete control), read-out: Plant response rating, Velvetleaf
[25] = post-emergence, Postemergence, scale 0 to 100 (0 no effect, 100 complete control), read-out: Crabgrass, Large plant response rating
[26] = post-emergence, Postemergence, scale 0 to 100, 0 no effect, 100 complete control, read-out: Plant response rating, Crabgrass, Large
[27] = pre-emergence, Preemergence, scale 0 to 100 (0 no effect, 100 complete control), read-out: Plant response rating, Crabgrass, Large
[28] = post-emergence, Postemergence, scale 0 to 100, 0 no effect, 100 complete control, read-out: Plant response rating, Johnsongrass
[29] = pre-emergence, Preemergence, scale 0 to 100 (0 no effect, 100 complete control), read-out: Plant response rating, Johnsongrass

Fc1cccc(Oc2ncc(Cl)cn2)c1-c1cc(C(F)(F)F)on1 [Compound 168, 5-chloro-2-[2-[5-(trifluoromethyl)-3-isoxazolyl]-3-fluorophenoxy]pyrimidine]
5%: pest or weed control at 31 g/ha ([1]; post-emergence, Postemergence, scale 0 to 100 (0 no effect, 100 complete control), read-out: Nutsedge, Yellow plant response rating) | pest or weed control at 16 g/ha ([1]; pre-emergence, Preemergence, 16 g ai/ha, scale 0 to 100 (0 no effect, 100 complete control), read-out: Plant response rating, Nutsedge, Yellow) | pest or weed control at 31 g/ha [1, 16] | plant injury at 16 g/ha ([3]; pre-emergence, Preemergence, 16 g ai/ha, scale 0 to 100 (0 no effect, 100 complete control), read-out: Plant response rating, Soybean) | plant injury at 31 g/ha [4, 22] | pest or weed control at 16 g/ha [6, 25] | pest or weed control at 31 g/ha [6, 25] | pest or weed control at 31 g/ha ([7]; post-emergence, Postemergence, scale 0 to 100 (0 no effect, 100 complete control), read-out: Johnsongrass plant response rating) | pest or weed control at 62 g/ha [7, 28]
98%: pest or weed control at 31 g/ha ([8]; 31 g ai/ha, scale 0 to 100 (0 no effect, 100 complete control), read-out: Chickweed plant response rating)
0%: plant injury at 16 g/ha ([4]; pre-emergence, Preemergence, 16 g ai/ha, scale 0 to 100 (0 no effect, 100 complete control), read-out: Plant response rating, Wheat)
45%: pest or weed control at 125 g/ha ([1]; pre-emergence, Preemergence, read-out: Plant response rating (scale 0 to 100), Nutsedge, Yellow) | plant injury at 62 g/ha [4, 22] | pest or weed control at 62 g/ha [5, 23]
95%: plant injury at 16 g/ha ([2]; pre-emergence, Preemergence, 16 g ai/ha, scale 0 to 100 (0 no effect, 100 complete control), read-out: Plant response rating, Oilseed Rape) | pest or weed control at 31 g/ha [7, 29]
40%: plant injury at 62 g/ha [3, 19] | pest or weed control at 31 g/ha ([5]; post-emergence, Postemergence, scale 0 to 100 (0 no effect, 100 complete control), read-out: Velvetleaf plant response rating) | pest or weed control at 125 g/ha [6, 26] | plant injury at 250 g/ha [12]
10%: pest or weed control at 62 g/ha [1, 15] | plant injury at 31 g/ha ([4]; post-emergence, Postemergence, scale 0 to 100 (0 no effect, 100 complete control), read-out: Wheat plant response rating) | pest or weed control at 31 g/ha ([10]; 31 g ai/ha, scale 0 to 100 (0 no effect, 100 complete control), read-out: Oat, Wild plant response rating)
15%: pest or weed control at 125 g/ha [1, 15] | pest or weed control at 62 g/ha [1, 16] | pest or weed control at 62 g/ha [6, 26]
75%: plant injury at 31 g/ha ([3]; post-emergence, Postemergence, scale 0 to 100 (0 no effect, 100 complete control), read-out: Soybean plant response rating)
100%: plant injury at 31 g/ha ([2]; post-emergence, Postemergence, scale 0 to 100 (0 no effect, 100 complete control), read-out: Oilseed Rape plant response rating) | plant injury at 62 g/ha [2, 17] | plant injury at 125 g/ha [2, 17] | plant injury at 125 g/ha ([2]; pre-emergence, Preemergence, read-out: Plant response rating (scale 0 to 100), Oilseed Rape) | plant injury at 31 g/ha [2, 18] | plant injury at 62 g/ha [2, 18] | pest or weed control at 125 g/ha ([5]; pre-emergence, Preemergence, read-out: Plant response rating (scale 0 to 100), Velvetleaf) | pest or weed control at 31 g/ha [5, 24] | pest or weed control at 62 g/ha [5, 24] | pest or weed control at 125 g/ha ([6]; pre-emergence, Preemergence, read-out: Plant response rating (scale 0 to 100), Crabgrass, Large) | pest or weed control at 16 g/ha [6, 27] | pest or weed control at 31 g/ha [6, 27] | pest or weed control at 62 g/ha [6, 27] | pest or weed control at 125 g/ha ([7]; pre-emergence, Preemergence, read-out: Plant response rating (scale 0 to 100), Johnsongrass) | pest or weed control at 62 g/ha ([8]; 62 g ai/ha, scale 0 to 100, 0 no effect, 100 complete control, read-out: Plant response rating, Chickweed) | pest or weed control at 125 g/ha ([8]; 125 g ai/ha, scale 0 to 100, 0 no effect, 100 complete control, read-out: Plant response rating, Chickweed) | pest or weed control at 31 g/ha ([9]; 31 g ai/ha, scale 0 to 100 (0 no effect, 100 complete control), read-out: Kochia plant response rating) | pest or weed control at 62 g/ha ([9]; 62 g ai/ha, scale 0 to 100, 0 no effect, 100 complete control, read-out: Plant response rating, Kochia) | pest or weed control at 125 g/ha ([9]; 125 g ai/ha, scale 0 to 100, 0 no effect, 100 complete control, read-out: Plant response rating, Kochia)
65%: pest or weed control at 16 g/ha ([8]; 16 g ai/ha, scale 0 to 100 (0 no effect, 100 complete control), read-out: Chickweed plant response rating)
55%: plant injury at 62 g/ha [3, 20]
85%: plant injury at 125 g/ha ([3]; pre-emergence, Preemergence, read-out: Plant response rating (scale 0 to 100), Soybean) | plant injury at 125 g/ha ([4]; pre-emergence, Preemergence, read-out: Plant response rating (scale 0 to 100), Wheat) | pest or weed control at 16 g/ha ([5]; pre-emergence, Preemergence, 16 g ai/ha, scale 0 to 100 (0 no effect, 100 complete control), read-out: Plant response rating, Velvetleaf) | pest or weed control at 62 g/ha [7, 29]
90%: plant injury at 125 g/ha [3, 19] | pest or weed control at 125 g/ha [5, 23] | pest or weed control at 250 g/ha [11] | pest or weed control at 250 g/ha [13] | pest or weed control at 250 g/ha [14]
35%: plant injury at 125 g/ha [4, 21] | pest or weed control at 16 g/ha ([7]; pre-emergence, Preemergence, 16 g ai/ha, scale 0 to 100 (0 no effect, 100 complete control), read-out: Plant response rating, Johnsongrass)
20%: pest or weed control at 125 g/ha [7, 28] | pest or weed control at 62 g/ha ([10]; 62 g ai/ha, scale 0 to 100, 0 no effect, 100 complete control, read-out: Plant response rating, Oat, Wild)
30%: plant injury at 31 g/ha [3, 20] | plant injury at 62 g/ha [4, 21] | pest or weed control at 125 g/ha ([10]; 125 g ai/ha, scale 0 to 100, 0 no effect, 100 complete control, read-out: Plant response rating, Oat, Wild)
